# Assay results as given in article PMC3382171 (PLoS ONE, 2012).
# Legend:
# Test in all cases: biochemical
# Details in all cases: read-out: Upstate KSS % inhibition at 1uM
# [1] = target: T1, PRAK (Homo sapiens, UniProt Q8IW41)
# T1 construct: gene MAPKAPK5
# Description: (§1) In these selectivity assays the concentration of ATP was set to the Km value of ATP for each kinase tested to allow for a relative potency comparison between the various kinases. The compounds were tested at 1 µM final concentration. […] (A) Kinase selectivity screen (KSS) performed at Upstate Biotechnology. […] (B) KSS performed at University of Dundee (Division of Signal Transduction Therapy). […] (PDF) Click here for additional data file.
# [2] = target: T2, PKCgamma (Homo sapiens, UniProt P05129)
# T2 construct: gene PRKCG
# Description: as §1
# [3] = target: GRK3 (Homo sapiens, UniProt P35626)
# Description: as §1
# [4] = target: T3, TAK1 (Homo sapiens, UniProt O43318)
# T3 construct: gene MAP3K7
# Description: as §1
# [5] = target: T4, Rse (Homo sapiens, UniProt Q06418)
# T4 construct: gene TYRO3
# Description: as §1
# [6] = target: T5, MKK7beta (Homo sapiens, UniProt O14733)
# T5 construct: gene MAP2K7; isoform beta
# Description: as §1
# [7] = target: PLK3 (Homo sapiens, UniProt Q9H4B4)
# Description: as §1
# [8] = target: EPHB4 (Homo sapiens, UniProt P54760)
# Description: as §1
# [9] = target: T6, DYRK2 (Homo sapiens, UniProt Q92630)
# T6 sequence (Q92630 1-601): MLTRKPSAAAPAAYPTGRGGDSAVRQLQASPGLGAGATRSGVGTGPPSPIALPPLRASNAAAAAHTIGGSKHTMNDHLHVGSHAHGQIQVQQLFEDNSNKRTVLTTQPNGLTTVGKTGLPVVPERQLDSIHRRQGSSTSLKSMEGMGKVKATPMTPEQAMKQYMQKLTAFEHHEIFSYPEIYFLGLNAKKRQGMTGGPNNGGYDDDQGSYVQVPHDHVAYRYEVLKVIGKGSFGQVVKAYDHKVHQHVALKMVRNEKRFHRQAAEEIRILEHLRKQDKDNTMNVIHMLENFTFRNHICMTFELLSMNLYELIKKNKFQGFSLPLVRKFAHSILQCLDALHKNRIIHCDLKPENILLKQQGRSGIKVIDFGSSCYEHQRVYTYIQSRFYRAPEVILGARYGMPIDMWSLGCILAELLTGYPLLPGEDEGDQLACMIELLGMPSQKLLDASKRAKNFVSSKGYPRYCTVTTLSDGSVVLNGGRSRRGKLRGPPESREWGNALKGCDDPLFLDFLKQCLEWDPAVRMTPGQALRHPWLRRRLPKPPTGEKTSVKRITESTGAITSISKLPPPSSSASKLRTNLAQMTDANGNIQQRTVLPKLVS
# Description: as §1
# [10] = target: T7, CHK2 (Homo sapiens, UniProt O96017)
# T7 construct: gene CHEK2
# Description: as §1
# [11] = target: BTK (Homo sapiens, UniProt Q06187)
# Description: as §1
# [12] = target: FYN (Homo sapiens, UniProt P06241)
# Description: as §1
# [13] = target: T8, SAPK2b (Homo sapiens, UniProt Q15759)
# T8 construct: gene MAPK11
# Description: as §1
# [14] = target: T9, FAK (Homo sapiens, UniProt Q05397)
# T9 construct: gene PTK2
# Description: as §1
# [15] = target: EGFR (Homo sapiens, UniProt P00533)
# Description: as §1
# [16] = target: Lyn (Homo sapiens, UniProt P07948)
# Description: as §1
# [17] = target: HIPK2 (Homo sapiens, UniProt Q9H2X6)
# Description: as §1
# [18] = target: T10, Pyk2 (Homo sapiens, UniProt Q14289)
# T10 construct: gene PTK2B
# Description: as §1
# [19] = target: T11, PKBgamma (Homo sapiens, UniProt Q9Y243)
# T11 construct: gene AKT3
# Description: as §1
# [20] = target: T12, SAPK3 (Homo sapiens, UniProt P53778)
# T12 construct: gene MAPK12
# Description: as §1
# [21] = target: ALK (Homo sapiens, UniProt Q9UM73)
# Description: as §1
# [22] = target: PAK4 (Homo sapiens, UniProt O96013)
# Description: as §1
# [23] = target: PAK2 (Homo sapiens, UniProt Q13177)
# Description: as §1
# [24] = target: NEK6 (Homo sapiens, UniProt Q9HC98)
# Description: as §1
# [25] = target: BMX (Homo sapiens, UniProt P51813)
# Description: as §1
# [26] = target: T13, Rsk1 (Homo sapiens, UniProt Q15418)
# T13 construct: gene RPS6KA1
# Description: as §1
# [27] = target: RIPK2 (Homo sapiens, UniProt O43353)
# Description: as §1
# [28] = target: T14, LKB1 (Homo sapiens, UniProt Q15831)
# T14 construct: gene STK11
# Description: as §1
# T11 sequence (Q9Y243 whole entry): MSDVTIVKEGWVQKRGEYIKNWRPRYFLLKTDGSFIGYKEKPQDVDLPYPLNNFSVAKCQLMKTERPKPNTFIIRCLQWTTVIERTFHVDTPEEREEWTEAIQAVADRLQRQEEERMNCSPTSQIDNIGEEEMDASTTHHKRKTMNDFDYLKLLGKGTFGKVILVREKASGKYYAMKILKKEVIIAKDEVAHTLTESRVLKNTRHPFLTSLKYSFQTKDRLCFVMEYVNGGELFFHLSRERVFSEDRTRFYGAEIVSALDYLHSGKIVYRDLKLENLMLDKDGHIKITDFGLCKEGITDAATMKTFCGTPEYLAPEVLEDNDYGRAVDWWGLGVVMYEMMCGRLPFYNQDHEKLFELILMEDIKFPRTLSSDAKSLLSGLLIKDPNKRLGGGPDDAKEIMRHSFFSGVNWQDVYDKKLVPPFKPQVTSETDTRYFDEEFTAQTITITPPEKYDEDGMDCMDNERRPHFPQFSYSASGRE
# Sequence of BMX (P51813 whole entry): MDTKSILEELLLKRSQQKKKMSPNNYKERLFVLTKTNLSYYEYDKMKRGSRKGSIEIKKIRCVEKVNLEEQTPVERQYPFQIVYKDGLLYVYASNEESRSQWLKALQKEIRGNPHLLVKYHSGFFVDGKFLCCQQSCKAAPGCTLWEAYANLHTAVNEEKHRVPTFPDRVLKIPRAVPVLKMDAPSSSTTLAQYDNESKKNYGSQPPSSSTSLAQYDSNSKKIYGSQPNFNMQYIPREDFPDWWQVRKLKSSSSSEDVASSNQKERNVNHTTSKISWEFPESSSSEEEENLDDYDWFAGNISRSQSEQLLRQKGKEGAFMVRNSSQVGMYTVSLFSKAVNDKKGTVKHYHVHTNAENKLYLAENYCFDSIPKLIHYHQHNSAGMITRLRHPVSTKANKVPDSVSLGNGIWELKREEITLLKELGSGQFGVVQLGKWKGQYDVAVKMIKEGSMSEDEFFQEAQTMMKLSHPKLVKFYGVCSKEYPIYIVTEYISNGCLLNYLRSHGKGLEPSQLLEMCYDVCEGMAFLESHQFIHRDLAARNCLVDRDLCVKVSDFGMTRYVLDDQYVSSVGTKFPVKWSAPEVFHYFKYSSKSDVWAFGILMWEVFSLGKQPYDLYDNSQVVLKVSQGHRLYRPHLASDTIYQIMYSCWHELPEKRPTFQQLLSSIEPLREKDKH
# T9 sequence (Q05397 whole entry): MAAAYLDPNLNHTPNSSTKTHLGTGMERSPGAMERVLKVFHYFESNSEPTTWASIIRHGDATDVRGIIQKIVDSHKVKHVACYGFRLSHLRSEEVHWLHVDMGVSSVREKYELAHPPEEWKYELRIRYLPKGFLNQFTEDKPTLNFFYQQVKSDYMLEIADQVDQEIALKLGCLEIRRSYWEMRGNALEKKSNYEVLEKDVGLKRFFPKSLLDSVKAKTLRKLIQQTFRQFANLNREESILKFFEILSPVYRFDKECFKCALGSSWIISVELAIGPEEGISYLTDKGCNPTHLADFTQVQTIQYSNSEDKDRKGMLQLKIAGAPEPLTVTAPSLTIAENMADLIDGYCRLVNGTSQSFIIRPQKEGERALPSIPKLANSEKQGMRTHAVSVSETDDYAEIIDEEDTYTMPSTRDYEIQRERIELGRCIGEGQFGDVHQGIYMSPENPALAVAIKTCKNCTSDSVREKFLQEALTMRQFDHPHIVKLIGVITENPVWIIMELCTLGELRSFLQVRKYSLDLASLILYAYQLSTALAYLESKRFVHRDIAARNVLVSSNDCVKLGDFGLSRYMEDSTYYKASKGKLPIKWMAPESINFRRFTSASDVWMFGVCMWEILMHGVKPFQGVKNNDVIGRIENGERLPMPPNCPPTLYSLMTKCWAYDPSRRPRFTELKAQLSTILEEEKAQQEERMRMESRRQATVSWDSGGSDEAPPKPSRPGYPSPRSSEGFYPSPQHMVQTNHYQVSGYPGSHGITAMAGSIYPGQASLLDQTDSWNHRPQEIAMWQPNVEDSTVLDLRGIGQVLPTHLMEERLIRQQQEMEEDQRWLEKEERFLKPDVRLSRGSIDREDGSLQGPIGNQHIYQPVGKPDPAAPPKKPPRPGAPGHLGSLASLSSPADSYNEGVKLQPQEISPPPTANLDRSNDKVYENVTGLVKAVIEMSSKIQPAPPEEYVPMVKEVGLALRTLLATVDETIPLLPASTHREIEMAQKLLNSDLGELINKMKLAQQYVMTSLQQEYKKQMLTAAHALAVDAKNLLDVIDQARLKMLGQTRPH
# T4 sequence (Q06418 whole entry): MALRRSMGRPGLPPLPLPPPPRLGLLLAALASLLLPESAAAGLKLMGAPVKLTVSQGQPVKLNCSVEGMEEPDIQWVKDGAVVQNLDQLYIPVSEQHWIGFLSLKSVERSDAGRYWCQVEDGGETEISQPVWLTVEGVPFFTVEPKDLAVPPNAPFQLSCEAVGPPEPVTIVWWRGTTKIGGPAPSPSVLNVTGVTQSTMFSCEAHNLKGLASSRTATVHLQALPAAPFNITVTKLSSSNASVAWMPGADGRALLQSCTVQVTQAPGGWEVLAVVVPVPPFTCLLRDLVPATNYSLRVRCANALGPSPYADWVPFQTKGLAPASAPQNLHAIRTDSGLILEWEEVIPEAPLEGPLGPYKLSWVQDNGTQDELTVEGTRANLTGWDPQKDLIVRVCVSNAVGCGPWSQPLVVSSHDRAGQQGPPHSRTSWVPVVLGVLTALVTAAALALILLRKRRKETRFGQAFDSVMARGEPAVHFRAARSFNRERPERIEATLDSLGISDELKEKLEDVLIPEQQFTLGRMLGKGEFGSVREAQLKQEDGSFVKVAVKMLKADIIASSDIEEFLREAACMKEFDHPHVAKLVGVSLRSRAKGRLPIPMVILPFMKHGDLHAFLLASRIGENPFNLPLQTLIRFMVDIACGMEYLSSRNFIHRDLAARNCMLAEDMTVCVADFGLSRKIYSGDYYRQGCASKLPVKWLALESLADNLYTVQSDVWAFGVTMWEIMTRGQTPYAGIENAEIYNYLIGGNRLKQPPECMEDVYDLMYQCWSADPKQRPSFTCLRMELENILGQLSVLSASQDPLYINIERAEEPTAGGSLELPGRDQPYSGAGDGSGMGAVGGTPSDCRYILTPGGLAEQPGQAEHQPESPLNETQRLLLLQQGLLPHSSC
# Sequence of Lyn (P07948 whole entry): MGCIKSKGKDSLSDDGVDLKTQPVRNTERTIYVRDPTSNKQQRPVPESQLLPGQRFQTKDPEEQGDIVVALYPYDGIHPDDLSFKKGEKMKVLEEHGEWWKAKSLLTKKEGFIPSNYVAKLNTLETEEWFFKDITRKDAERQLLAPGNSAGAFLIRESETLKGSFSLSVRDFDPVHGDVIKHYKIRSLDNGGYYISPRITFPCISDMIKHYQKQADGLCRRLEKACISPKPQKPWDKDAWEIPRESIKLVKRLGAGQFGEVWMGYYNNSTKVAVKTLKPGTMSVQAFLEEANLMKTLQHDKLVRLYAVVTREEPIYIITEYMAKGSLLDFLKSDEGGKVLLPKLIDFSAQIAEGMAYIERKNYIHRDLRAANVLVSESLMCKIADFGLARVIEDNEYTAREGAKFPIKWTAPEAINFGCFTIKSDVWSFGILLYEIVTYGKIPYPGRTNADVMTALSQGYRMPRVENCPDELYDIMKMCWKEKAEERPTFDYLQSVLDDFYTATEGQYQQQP
# Sequence of PAK2 (Q13177 whole entry): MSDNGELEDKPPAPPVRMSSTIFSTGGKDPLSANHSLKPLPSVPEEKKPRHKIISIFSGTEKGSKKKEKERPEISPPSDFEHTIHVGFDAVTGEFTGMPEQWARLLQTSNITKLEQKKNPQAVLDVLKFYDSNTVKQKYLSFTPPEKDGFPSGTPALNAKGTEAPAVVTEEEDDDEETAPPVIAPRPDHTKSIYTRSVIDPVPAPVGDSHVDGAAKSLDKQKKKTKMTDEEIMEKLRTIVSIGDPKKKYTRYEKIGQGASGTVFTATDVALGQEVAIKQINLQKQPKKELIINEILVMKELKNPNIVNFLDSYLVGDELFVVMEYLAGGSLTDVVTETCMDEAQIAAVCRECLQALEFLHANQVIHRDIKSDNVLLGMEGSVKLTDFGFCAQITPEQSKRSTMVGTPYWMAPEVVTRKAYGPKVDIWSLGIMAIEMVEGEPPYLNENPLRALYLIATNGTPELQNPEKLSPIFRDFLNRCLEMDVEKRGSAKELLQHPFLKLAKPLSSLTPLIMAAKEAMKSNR
# T14 sequence (Q15831 whole entry): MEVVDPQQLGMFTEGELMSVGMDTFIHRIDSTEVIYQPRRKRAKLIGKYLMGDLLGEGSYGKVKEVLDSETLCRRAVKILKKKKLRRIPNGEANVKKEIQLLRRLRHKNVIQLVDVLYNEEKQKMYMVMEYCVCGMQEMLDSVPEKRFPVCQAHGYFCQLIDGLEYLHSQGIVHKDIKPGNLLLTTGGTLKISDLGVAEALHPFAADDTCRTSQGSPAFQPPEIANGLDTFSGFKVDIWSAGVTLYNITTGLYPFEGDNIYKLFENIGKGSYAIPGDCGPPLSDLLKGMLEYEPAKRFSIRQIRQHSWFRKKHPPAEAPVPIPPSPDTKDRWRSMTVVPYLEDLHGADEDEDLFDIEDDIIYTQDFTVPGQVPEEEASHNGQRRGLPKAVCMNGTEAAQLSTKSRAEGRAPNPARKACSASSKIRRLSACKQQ
# Sequence of NEK6 (Q9HC98 whole entry): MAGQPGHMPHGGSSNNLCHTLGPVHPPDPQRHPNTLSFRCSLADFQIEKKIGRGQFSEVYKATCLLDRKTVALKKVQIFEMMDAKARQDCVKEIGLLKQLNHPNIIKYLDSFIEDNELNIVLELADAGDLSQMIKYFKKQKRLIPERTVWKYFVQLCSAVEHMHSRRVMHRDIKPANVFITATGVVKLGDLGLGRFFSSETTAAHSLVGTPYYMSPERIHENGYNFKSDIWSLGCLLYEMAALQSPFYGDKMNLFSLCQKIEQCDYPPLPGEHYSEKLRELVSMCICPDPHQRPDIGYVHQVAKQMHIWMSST
smiles,measurement,setting,value
"OCCn1cc(-c2cnc3nnn(Cc4ccc5ncccc5c4)c3n2)cn1 [METi, PF-04217903]",inhibition at 1 µM,[1],-2%
same,inhibition at 1 µM,[2],5%
same,inhibition at 1 µM,[3],-1%
same,inhibition at 1 µM,[4],-7%
same,inhibition at 1 µM,[5],4%
same,inhibition at 1 µM,[6],-2%
same,inhibition at 1 µM,[7],-7%
same,inhibition at 1 µM,[8],-23%
same,inhibition at 1 µM,[9],-1%
same,inhibition at 1 µM,[10],0%
same,inhibition at 1 µM,[11],-13%
same,inhibition at 1 µM,[12],-20%
same,inhibition at 1 µM,[13],1%
same,inhibition at 1 µM,[14],-9%
same,inhibition at 1 µM,[15],0%
same,inhibition at 1 µM,[16],2%
same,inhibition at 1 µM,[17],8%
same,inhibition at 1 µM,[18],-17%
same,inhibition at 1 µM,[19],5%
same,inhibition at 1 µM,[20],10%
same,inhibition at 1 µM,[21],54%
same,inhibition at 1 µM,[22],1%
same,inhibition at 1 µM,[23],-9%
same,inhibition at 1 µM,[24],-14%
same,inhibition at 1 µM,[25],-10%
same,inhibition at 1 µM,[26],-11%
same,inhibition at 1 µM,[27],3%
same,inhibition at 1 µM,[28],-10%
